Read-outs that look alike come from different tables or passages of the source. Blank lines part the entries; values can stand above or below the molecule they belong to.
Legend:
[1] = target: T1, CFTR (Homo sapiens, UniProt P13569, DEL508-508); experiment: HBE2 assay: Ussing chamber assay of CFTR-mediated short-circuit currents; type: cell-based; settings: F508del/MF-HBE cells, with 44 nM potentiator, 18-24 hours, 20% human serum
T1 construct: endogenous in cells; host or cells: primary human bronchial epithelial cells from CF subjects (F508del/MF-HBE), differentiated at air-liquid interface
T1 sequence (P13569 with tags, fused parts or gaps DEL508-508): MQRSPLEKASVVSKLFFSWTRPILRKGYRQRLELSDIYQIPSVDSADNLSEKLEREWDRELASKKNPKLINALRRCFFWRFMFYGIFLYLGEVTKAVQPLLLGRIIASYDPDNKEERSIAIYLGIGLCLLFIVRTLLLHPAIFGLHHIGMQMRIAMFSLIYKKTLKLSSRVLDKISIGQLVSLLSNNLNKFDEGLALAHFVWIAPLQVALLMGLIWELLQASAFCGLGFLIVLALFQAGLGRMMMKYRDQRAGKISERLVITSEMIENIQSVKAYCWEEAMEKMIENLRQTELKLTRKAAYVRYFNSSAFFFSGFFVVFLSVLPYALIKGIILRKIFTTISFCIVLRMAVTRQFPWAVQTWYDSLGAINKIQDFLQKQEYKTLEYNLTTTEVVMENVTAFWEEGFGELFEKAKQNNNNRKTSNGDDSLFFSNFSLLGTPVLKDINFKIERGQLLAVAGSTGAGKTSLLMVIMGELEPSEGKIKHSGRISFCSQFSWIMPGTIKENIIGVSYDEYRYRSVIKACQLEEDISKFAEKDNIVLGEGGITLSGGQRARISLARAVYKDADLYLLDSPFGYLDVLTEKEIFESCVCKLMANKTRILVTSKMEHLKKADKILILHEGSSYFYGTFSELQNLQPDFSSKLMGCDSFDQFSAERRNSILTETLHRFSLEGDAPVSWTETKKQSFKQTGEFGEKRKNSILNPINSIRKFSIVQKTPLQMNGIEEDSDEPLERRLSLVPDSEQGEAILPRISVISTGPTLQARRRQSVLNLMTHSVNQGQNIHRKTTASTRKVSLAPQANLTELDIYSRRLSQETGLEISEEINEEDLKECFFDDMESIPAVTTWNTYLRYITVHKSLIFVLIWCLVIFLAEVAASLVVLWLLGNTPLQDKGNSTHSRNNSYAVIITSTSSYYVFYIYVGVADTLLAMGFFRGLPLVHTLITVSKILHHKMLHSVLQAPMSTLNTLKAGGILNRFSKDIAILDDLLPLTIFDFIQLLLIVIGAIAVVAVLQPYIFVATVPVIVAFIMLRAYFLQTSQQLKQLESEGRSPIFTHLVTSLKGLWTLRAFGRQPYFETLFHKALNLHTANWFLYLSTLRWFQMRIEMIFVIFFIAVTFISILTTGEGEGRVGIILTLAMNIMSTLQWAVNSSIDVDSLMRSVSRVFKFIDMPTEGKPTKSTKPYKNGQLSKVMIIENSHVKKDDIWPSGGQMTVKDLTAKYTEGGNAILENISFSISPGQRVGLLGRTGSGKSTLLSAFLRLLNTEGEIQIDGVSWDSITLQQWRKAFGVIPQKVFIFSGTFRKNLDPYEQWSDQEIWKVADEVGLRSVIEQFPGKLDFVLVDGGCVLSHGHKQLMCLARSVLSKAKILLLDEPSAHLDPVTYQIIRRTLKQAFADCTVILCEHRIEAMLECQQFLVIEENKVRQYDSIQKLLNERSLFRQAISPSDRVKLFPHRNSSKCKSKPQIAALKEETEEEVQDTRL
Procedure: Ussing Chamber Assay of CFTR-Mediated Short-Circuit Currents
After four days the apical media was removed, and the cells were grown at an air liquid interface for >14 days prior to use.
To isolate the CFTR-mediated short-circuit (ISC) current, F508del/MF-HBE grown on Costar® Snapwell™ cell culture inserts were mounted in an Ussing chamber and the transepithelial ISC was measured under voltage-clamp recording conditions (Vhold=0 mV) at 37° C. […] The CFTR-mediated ISC (μA/cm^2) for each condition was determined from the peak forskolin response to the steady-state current following inhibition.
Identification of Corrector Compounds
The activity of the CFTR corrector compounds on the CFTR-mediated ISC was determined in Ussing chamber studies as described above.

[2] = target: T1, CFTR; experiment: HBE assay: Ussing chamber assay of CFTR-mediated short-circuit currents; type: cell-based; settings: for EC50: read-out: HBE EC50; for activation at 10 µM: read-out: HBE Activity at 10 μM (%)
In short: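 CFTR-mediated Isc (μA/cm²) equals the peak response to apical 20 μM forskolin minus the residual after a 20 μM each BPO/GlyH-101/CFTR inhibitor 172 cocktail, recorded in Ussing chambers at Vhold 0 mV, 37 °C, pH 7.4, with 30 μM apical amiloride. Cells were F508del/MF HBE cultures preincubated 18-24 h with corrector (concentration range or 10 μM) plus 1 μM ivacaftor in 20% human serum.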

[3] = Table 10, read-out: HBE Max activity (%)
[4] = Table 11, read-out: HBE Max Activity (%)
[5] = Table 12, read-out: HBE Max Activity (%)

HBE2 Activity at 3 μM (%) ([1]; 3 μM corrector): +++ (+++ is >60+)
SMILES: Cc1cccc(C)c1-c1cc2nc(n1)NS(=O)(=O)c1cccc(c1)C(=O)N(Cc1cncc(N3CCC[C@H]3C)n1)[C@H](CC1CCCC1)CO2 [Compound 1888]

HBE2 Activity at 3 μM (%) ([1]; 3 μM): +++ (+++ is >60+)
SMILES: CCCOc1cnc(CN2C(=O)c3cccc(c3)S(=O)(=O)Nc3nc(cc(-c4c(C)cccc4C)n3)OC[C@H]2CC2(C)CC2)nc1 [Compound 1562]

EC50 ([2]; Table 10): < 1000 nM
Emax [2, 3]: > 60%
SMILES: Cc1cccc(C)c1-c1cc2nc(n1)NS(=O)(=O)c1cccc(c1)C(=O)N(Cc1ccccc1-c1cn[nH]c1)[C@H](CC(C)(C)C)CO2 [Compound 147, (11R)-6-(2,6-dimethylphenyl)-11-(2,2-dimethylpropyl)-12-{[2-(1H-pyrazol-4-yl)phenyl]methyl}-9-oxa-2λ^6-thia-3,5,12,19-tetraazatricyclo[12.3.1.14,8]nonadeca-1(17),4,6,8(19),14(18),15-hexaene-2,2,13-trione]

EC50 ([2]; Table 11): 1000 to 3000 nM
Emax [2, 4]: > 60%
SMILES: CCN(CC)c1cccc(CN2C(=O)c3cccc(c3)S(=O)(=O)Nc3nc(cc(-c4c(C)cccc4C)n3)OC[C@H]2CC(C)(C)C)n1 [Compound 711]

activation at 10 µM ([2]; Table 13): > 600%
SMILES: Cc1cccc(C)c1-c1cc2nc(n1)NS(=O)(=O)c1cccc(c1)C(=O)N(Cc1nc(C3CCC3)no1)[C@H](CC(C)(C)C)CO2 [Compound 1130]

EC50 ([2]; Table 12): < 1000 nM
Emax [2, 5]: > 60%
SMILES: Cc1cccc(C)c1-c1cc2nc(n1)NS(=O)(=O)c1cccc(c1)C(=O)N(Cc1ccc(C3CC(C)(C)CO3)cn1)[C@H](CC(C)(C)C)CO2 (stereo partly drawn) [Compound 156, (11R)-6-(2,6-Dimethylphenyl)-11-(2,2-dimethylpropyl)-12-[[5-(4,4-dimethyltetrahydrofuran-2-yl)-2-pyridyl]methyl]-2,2-dioxo-9-oxa-2λ6-thia-3,5,12,19-tetrazatricyclo[12.3.1.14,8]nonadeca-1(18),4(19),5,7,14,16-hexaen-13-one]

EC50 ([2]; Table 10): < 1000 nM
Emax [2, 3]: > 60%
SMILES: COc1ccnc(CN2C(=O)c3cccc(c3)S(=O)(=O)Nc3nc(cc(-c4c(C)cccc4C)n3)OC[C@H]2CC(C)(C)C)n1 [Compound 773]

activation at 10 µM ([2]; Table 13): > 600%
SMILES: Cc1cccc(C)c1-c1cc2nc(n1)NS(=O)(=O)c1cccc(c1)C(=O)N(CC(=O)N1CCCC1(C)C)[C@H](CC(C)(C)C)CO2 [Compound 213]

EC50 ([2]; Table 11): < 1000 nM
Emax [2, 4]: > 60%
SMILES: Cc1cccc(C)c1-c1cc2nc(n1)NS(=O)(=O)c1cccc(c1)C(=O)N(Cc1nccc(OC(C)C)n1)[C@H](CC(C)(C)C)CO2 [Compound 656]

activation at 10 µM ([2]; Table 13): > 600%
SMILES: COC(=O)C1CCN(c2ccc(CN3C(=O)c4cccc(c4)S(=O)(=O)Nc4nc(cc(-c5c(C)cccc5C)n4)OC[C@H]3CC(C)(C)C)nc2)CC1 [Compound 255]

EC50 ([2]; Table 11): < 1000 nM
Emax [2, 4]: > 60%
SMILES: Cc1cccc(C)c1-c1cc2nc(n1)NS(=O)(=O)c1cccc(c1)C(=O)N(Cc1nccc(N(C)C)n1)[C@H](CC(C)(C)C)CO2 [Compound 649]

EC50 ([2]; Table 12): < 1000 nM
Emax [2, 5]: > 60%
SMILES: Cc1cccc(C)c1-c1cc2nc(n1)NS(=O)(=O)c1cccc(c1)C(=O)N(Cc1ncc(N3CC[C@](C)(O)C3)cn1)[C@H](CC(C)(C)C)CO2 [Compound 541]

EC50 ([2]; Table 11): < 1000 nM
Emax [2, 4]: 30 to 60%
SMILES: Cc1cccc(C)c1-c1cc2nc(n1)NS(=O)(=O)c1cccc(c1)C(=O)N(Cc1cccc(N3[C@H](C)CC[C@@H]3C)n1)[C@H](CC(C)(C)C)CO2 [Compound 709]

EC50 ([2]; Table 11): < 1000 nM
Emax [2, 4]: > 60%
SMILES: Cc1cccc(C)c1-c1cc2nc(n1)NS(=O)(=O)c1cccc(c1)C(=O)N(Cc1cccc(CO)n1)[C@H](CC(C)(C)C)CO2 [Compound 816]

activation at 10 µM ([2]; Table 12): > 600%
SMILES: Cc1cccc(C)c1-c1cc2nc(n1)NS(=O)(=O)c1cccc(c1)C(=O)N(Cc1nc(N(C)C)cc(C(F)(F)F)n1)[C@H](CC(C)(C)C)CO2 [Compound 325]

EC50 ([2]; Table 12): < 1000 nM
Emax [2, 5]: > 60%
SMILES: Cc1cccc(C)c1-c1cc2nc(n1)NS(=O)(=O)c1cccc(c1)C(=O)N(Cc1ncc(N3CC[C@@](C)(O)C3)cn1)[C@H](CC(C)(C)C)CO2 [Compound 542]

EC50 ([2]; Table 11): < 1000 nM
Emax [2, 4]: > 60%
SMILES: Cc1cccc(C)c1-c1cc2nc(n1)NS(=O)(=O)c1cccc(c1)C(=O)N(Cc1cccc(C3=CCCC3)n1)[C@H](CC(C)(C)C)CO2 [Compound 621]

EC50 ([2]; HBE assay): < 1000 nM
Emax ([2]; HBE assay, read-out: HBE Max activity (%)): > 60%
SMILES: Cc1cccc(C)c1-c1cc2nc(n1)NS(=O)(=O)c1cccc(c1)C(=O)N(Cc1nc(OCC(C)C)ccc1F)[C@H](CC(C)(C)C)CO2 [Compound 1376]

EC50 ([2]; Table 11): < 1000 nM
Emax [2, 4]: > 60%
SMILES: Cc1cccc(C)c1-c1cc2nc(n1)NS(=O)(=O)c1cccc(c1)C(=O)N(Cc1nccc(N)n1)[C@H](CC(C)(C)C)CO2 [Compound 645]
